Like-named read-outs stand apart in the source and are kept apart here. Each block holds one compound with its values, some of them ahead of it.
Tests used:
[1] = system: green peach aphid (Myzus persicae); assay: Myzus test (MYZUPE spray treatment); assay type: in vivo; conditions: application rate 20 g/ha, Chinese cabbage leaf discs
Protocol: Myzus Test (MYZUPE Spray Treatment)
To prepare an appropriate active ingredient preparation, 1 part by weight of active ingredient is mixed with the stated amounts of solvent and emulsifier, and the concentrate is diluted with emulsifier-containing water to the desired concentration.
Discs of Chinese cabbage (Brassica pekinensis) infected by all stages of the green peach aphid (Myzus persicae) are sprayed with an active ingredient preparation of the desired concentration.
After the desired time, the effect in % is determined. 100% means that all of the aphids have been killed; 0% means that none of the aphids have been killed.

cereals [2] = assay: Container trials with cereals in a greenhouse, mefenpyr 1 day before herbicide application; assay type: in vivo
Protocol: (§1) Seeds of monocotyledonous and dicotyledonous weed and crop plants are placed in sandy loam in wood fibre pots, covered with soil and cultivated in a greenhouse under good growth conditions. Two to three weeks after sowing, the test plants are treated at the one-leaf stage. The test compounds, formulated as wettable powders (WP), are sprayed onto the green parts of the plants in different dosages with a water application rate of 600 l/ha (converted), with 0.2% added wetting agent. After the test plants have been kept in the greenhouse under optimal growth conditions for about three weeks, the effect of the preparations is assessed visually by comparison to untreated controls (herbicidal effect in per cent: 100% effect=the plants have died, 0% effect=like control plants).
(§2) If there is to be an additional test as to whether safeners can improve the plant compatibility of test substances in the case of crop plants, the following options are used for applying the safeners: • Seeds of the crop plants are, before sowing, dressed with safener substance (the amount of safener stated in per cent, based on the weight of the seed) • Before the application of the test substances, the crop plants are sprayed with the safener at a certain application rate per hectare (usually one day before the application of the test substances) • The safener is applied together with the test substance as a tankmix (the amount of safener is stated in g/ha or as a ratio, based on the herbicide).
Container Trials with Cereals in a Greenhouse
Mefenpyr 1 Day Before Herbicide Application

Maize (Cecilia) = assay type: in vivo
Protocol: as §1, §2
(§3) Container Tests with Maize-Soya-Cotton in a Greenhouse
(§4) Cyprosulfamide 1 Day Before Herbicide Application

Maize (Arsenal) = assay: Container tests with maize-soya-cotton in a greenhouse, cyprosulfamide 1 day before herbicide application; assay type: in vivo
Protocol: as §1, §2, §3, §4

[3] = log P determination by HPLC/LC-MS on reversed-phase column (C 18); assay type: physicochemical; conditions: pH 2.7, 0.1% aqueous formic acid and acetonitrile; for chromatographic logP: reversed-phase column (C 18), pH 2.7, LC-MS acidic range, read-out: log P (HCOOH)
Protocol: The log P values reported in the above tables and preparation examples are determined according to EEC Directive 79/831 Annex V.A8 by HPLC (High Performance Liquid Chromatography) on a reversed-phase column (C 18). Temperature: 43° C.
The determination is effected in the acidic range at pH 2.3 with 0.1% aqueous phosphoric acid and acetonitrile as eluent; linear gradient from 10% acetonitrile to 95% acetonitrile.
The determination by LC-MS in the acidic range is effected at pH 2.7 with 0.1% aqueous formic acid and acetonitrile (contains 0.1% formic acid) as the eluent; linear gradient from 10% acetonitrile to 95% acetonitrile.
The determination by LC-MS in the neutral range is effected at pH 7.8 with 0.001 molar aqueous ammonium hydrogen carbonate solution and acetonitrile as the eluent; linear gradient from 10% acetonitrile to 95% acetonitrile.
The calibration is effected with unbranched alkane-2-ones (with 3 to 16 carbon atoms), the log P values of which are known (determination of log P values on the basis of the retention times by linear interpolation between two successive alkanones).

[4] = system: cotton aphid (Aphis gossypii); assay: Aphis gossypii test (with ammonium salts and penetration enhancers); assay type: in vivo; conditions: for Kill rate/% after 6 days: active ingredient alone, cotton plants
Protocol: Aphis gossypsi Test [table] To prepare an appropriate active ingredient preparation, 1 part by weight of active ingredient is mixed with the stated amounts of solvent and emulsifier, and the concentrate is diluted to the desired concentration with emulsifier-containing water. […] Cotton plants (Gossypium hirsutum) heavily infested by the cotton aphid (Aphis gossypii) are treated by spraying to runoff point with the active ingredient preparation of the desired concentration.

cereals [5] = assay: Container trials with cereals in a greenhouse, mefenpyr 1 day before herbicide application; assay type: in vivo; conditions: 10 days after application, 12.5 g a.i./ha
[6] = system: green peach aphid (Myzus persicae); assay: Enhancement of activity by ammonium/phosphonium salts with penetration enhancers: Myzus persicae test; assay type: in vivo; conditions: 0.8 ppm
Protocol: Enhancement of Activity by Ammonium/Phosphonium Salts in Combination with Penetration Enhancers Myzus persicae Test [table] To prepare an appropriate active ingredient preparation, 1 part by weight of active ingredient is mixed with the stated amount of solvent and emulsifier, and the concentrate is diluted to the desired concentration with water. […] Bell pepper plants (Capsicum annuum) heavily infested by the green peach aphid (Myzus persicae) are treated by spraying to runoff point with the active ingredient preparation of the desired concentration.

Maize (Aventura) = assay: Container tests with maize-soya-cotton in a greenhouse, cyprosulfamide 1 day before herbicide application; assay type: in vivo
Protocol: as §1, §2, §3, §4

[7] = Summer barley, 28 days after application, 12.5 g a.i./ha
[8] = Summer barley, 28 days after application, 25 g a.i./ha
[9] = 28 days after application, 12.5 g a.i./ha
[10] = Summer barley, 28 days after application, 50 g a.i./ha
[11] = 28 days after application, 25 g a.i./ha
[12] = 28 days after application, 50 g a.i./ha
[13] = 28 days after application, 100 g a.i./ha

SMILES: Cc1cc(OCC(F)(F)F)cc(C)c1C1=C(O)C2CCCCN2C1=O (stereo not shown) [Example I-1-a-20]
effect in % (aphids killed) [1]: ≥ 80%

SMILES: CCOC1CCCC2(CC1)NC(=O)C(c1c(C)cc(OCC(F)(F)F)cc1CC)=C2O (stereo not shown) [Example I-1-a-5]
Summer barley observed (%) (cereals [2]; [7]): 65% | Summer barley observed (%) (cereals [2]; [8]): 95% | Summer wheat observed (%) (cereals [2]; [9]): 65%

28 days after application Maize (Cecilia) observed (%) (Maize (Cecilia); 100 g a.i./ha): 75%
SMILES: CCOC(=O)OC1=C(c2c(C)cc(OCC(F)(F)F)cc2C)C(=O)NC12CCCC(OCC)C2 (stereo not shown) [Example I-1-c-2]
28 days after application Maize (Arsenal) observed (%) (Maize (Arsenal); 25 g a.i./ha): 20% | 28 days after application Maize (Arsenal) observed (%) (Maize (Arsenal); 50 g a.i./ha): 20% | 28 days after application Maize (Arsenal) observed (%) (Maize (Arsenal); 100 g a.i./ha): 25%

chromatographic logP [3]: 2.51
SMILES: Cc1cc(OCC(F)(F)F)cc(C)c1CC(=O)O [XXXI-1, 2,6-Dimethyl-4-trifluoroethoxyphenylacetic acid]

SMILES: COC1CCC2(CC1)NC(=O)C(c1c(C)ccc(OCC(F)(F)F)c1C)=C2O (stereo not shown) [Example I-1-a-29]
Kill rate/% after 6 days +AS (1000 ppm) ([4]; 4 ppm): 15% | Kill rate/% after 6 days +RME (1000 ppm) ([4]; 4 ppm): 80% | Kill rate/% after 6 days +RME +AS (1000 ppm each) ([4]; 4 ppm): 95% | Kill rate/% after 6 days ([4]; 4 ppm): 10%

SMILES: Cc1ccc(OCC(F)(F)F)c(C)c1C1=C(O)C2(CCOCC2)NC1=O [Example I-1-a-31]
Kill rate/% after 6 days +AS (1000 ppm) ([4]; 4 ppm): 10% | Kill rate/% after 6 days +RME (1000 ppm) ([4]; 4 ppm): 5% | Kill rate/% after 6 days +RME +AS (1000 ppm each) ([4]; 4 ppm): 35% | Kill rate/% after 6 days ([4]; 4 ppm): 0%

SMILES: COCC1CCC2(CC1)NC(=O)C(c1c(C)cc(OCC(F)(F)F)cc1C)=C2O (stereo not shown) [Example I-1-a-17]
Summer barley observed (%) (cereals [2]; [10]): 40% | Summer barley observed (%) (cereals [2]; Summer barley, 28 days after application, 100 g a.i./ha): 80% | Summer barley observed (%) (cereals [2]; Summer barley, 28 days after application, 200 g a.i./ha): 95%

SMILES: CCCOC1CCCC2(C1)NC(=O)C(c1c(C)cc(OCC(F)(F)F)cc1C)=C2O (stereo not shown) [Example I-1-a-19]
Summer barley observed (%) (cereals [2]; [8]): 70% | Summer wheat observed (%) (cereals [2]; [9]): 10% | Summer wheat observed (%) (cereals [2]; [11]): 20% | Summer wheat observed (%) (cereals [2]; [12]): 70% | Summer wheat observed (%) (cereals [2]; [13]): 85%

chromatographic logP [3]: 3.78
SMILES: CCOC(=O)C1(OC(=O)Cc2c(C)cc(OCC(F)(F)F)cc2C)CCOCC1 [III-1]

SMILES: CCCOC1CCCC2(C1)NC(=O)C(c1c(C)cc(OCC(F)(F)F)cc1CC)=C2O (stereo not shown) [Example I-1-a-14]
Summer wheat observed (%) (cereals [2]; [9]): 93% | Summer wheat observed (%) (cereals [2]; [11]): 99% | Summer wheat observed (%) (cereals [2]; [12]): 100%

log P (HCOOH) ([3]; LC-MS acidic range): 2.45 | chromatographic logP [3]: 2.59
SMILES: Cc1ccc(OCC(F)(F)F)cc1C1=C(O)C2(CCCC2)OC1=O [Example I-2-a-1]

SMILES: CCc1cc(OCC(F)(F)F)cc(C)c1C1=C(O)C2(CCC3(CC2)OCC(C)O3)NC1=O (stereo not shown) [Example I-1-a-7]
Summer wheat observed (%) (cereals [2]; [9]): 50% | Summer wheat observed (%) (cereals [2]; [11]): 50% | Summer wheat observed (%) (cereals [2]; [12]): 70% | Summer wheat observed (%) (cereals [2]; [13]): 70%

SMILES: COC1CCC2(CC1)NC(=O)C(c1c(C)cc(OCC(F)(F)F)cc1C)=C2O (stereo not shown) [Example I-1-a-25]
Summer wheat observed (%) (cereals [5]): 40% | Kill rate/% after 6 days +AS (1000 ppm) ([4]; 0.8 ppm): 35% | Kill rate/% after 6 days +RME (1000 ppm) ([4]; 0.8 ppm): 20% | Kill rate/% after 6 days +RME +AS (1000 ppm each) ([4]; 0.8 ppm): 85% | Kill rate/% after 6 days ([4]; 0.8 ppm): 0% | 28 days after application Maize (Cecilia) observed (%) (Maize (Cecilia); 12.5 g a.i./ha): 0% | 28 days after application Maize (Cecilia) observed (%) (Maize (Cecilia); 25 g a.i./ha): 10% | 28 days after application Maize (Cecilia) observed (%) (Maize (Cecilia); 50 g a.i./ha): 20% | 28 days after application Maize (Cecilia) observed (%) (Maize (Cecilia); 100 g a.i./ha): 35% | Kill rate/% after 6 days +AS (1000 ppm) ([6]; +AS (1000 ppm)): 0% | Kill rate/% after 6 days +RME (1000 ppm) ([6]; +RME (1000 ppm)): 40% | Kill rate/% after 6 days +RME +AS (1000 ppm each) ([6]; +RME +AS (1000 ppm each)): 55% | Kill rate/% after 6 days ([6]; active ingredient alone, bell pepper plants): 0% | Summer wheat observed (%) (cereals [2]; [9]): 70% | 28 days after application Maize (Arsenal) observed (%) (Maize (Arsenal); 12.5 g a.i./ha): 5% | 28 days after application Maize (Arsenal) observed (%) (Maize (Arsenal); 25 g a.i./ha): 15% | 28 days after application Maize (Arsenal) observed (%) (Maize (Arsenal); 50 g a.i./ha): 75% | 28 days after application Maize (Arsenal) observed (%) (Maize (Arsenal); 100 g a.i./ha): 100%

SMILES: CCc1cc(OCC(F)(F)F)cc(C)c1C1=C(O)C2(CCC3(CC2)OCCO3)NC1=O [Example I-1-a-6]
Summer wheat observed (%) (cereals [2]; [9]): 70% | Summer wheat observed (%) (cereals [2]; [11]): 85%

SMILES: CO[C@H]1CC[C@]2(CC1)NC(=O)C(c1c(C)cc(OCC(F)(F)F)cc1C)=C2OC(=O)C(C)C [Example I-1-b-2]
Summer barley observed (%) (cereals [2]; in vivo): 50%

SMILES: CCCCOC1CCCC2(C1)NC(=O)C(c1c(C)cc(OCC(F)(F)F)cc1CC)=C2O (stereo not shown) [Example I-1-a-15]
Summer barley observed (%) (cereals [2]; [7]): 70% | Summer barley observed (%) (cereals [2]; [8]): 85% | Summer barley observed (%) (cereals [2]; [10]): 97% | Summer wheat observed (%) (cereals [2]; [9]): 10% | Summer wheat observed (%) (cereals [2]; [11]): 30% | Summer wheat observed (%) (cereals [2]; [12]): 40% | Summer wheat observed (%) (cereals [2]; [13]): 60%

SMILES: CCc1cc(OCC(F)(F)F)cc(C)c1C1=C(O)C2(CCC(C)(OC)CC2)NC1=O (stereo not shown) [Example I-1-a-37]
Summer wheat observed (%) (cereals [2]; [9]): 70%

SMILES: CCc1cc(OCC(F)(F)F)cc(C)c1C1=C(O)C2(CCC(C)CC2)NC1=O (stereo not shown) [Example I-1-a-8]
Summer wheat observed (%) (cereals [5]): 65% | Summer wheat observed (%) (cereals [2]; [9]): 98% | 28 days after application Maize (Aventura) observed (%) (Maize (Aventura); 12.5 g a.i./ha): 35% | 28 days after application Maize (Aventura) observed (%) (Maize (Aventura); 25 g a.i./ha): 60% | 28 days after application Maize (Aventura) observed (%) (Maize (Aventura); 50 g a.i./ha): 70%

chromatographic logP [3]: 4.69
SMILES: Cc1ccc(OCC(F)(F)F)cc1C1=C(OC(=O)C(C)(C)C)C2(CCCC2)OC1=O [Example I-2-b-1]

Reference: patent US9045390B2, “Haloalkylmethyleneoxyphenyl-substituted ketoenols” (Bayer CropScience AG, priority 2009, dated 2015)
